The values that follow come from patent EP3057949B1, “SECONDARY ALCOHOL QUINOLINYL MODULATORS OF ROR GAMMA T” (Janssen Pharmaceutica NV, priority 2013, dated 2015).

Test [1] has as its target T1, human RORγt ligand binding domain (RORγt LBD) (Homo sapiens, UniProt P51449).
T1 construct: His-tag (N); TurboTEV protease cleavage site (ENLYFQG) (N); made in house; host or cells: E. coli (pHIS1, modified pET vector)
T1 sequence (P51449 258-518): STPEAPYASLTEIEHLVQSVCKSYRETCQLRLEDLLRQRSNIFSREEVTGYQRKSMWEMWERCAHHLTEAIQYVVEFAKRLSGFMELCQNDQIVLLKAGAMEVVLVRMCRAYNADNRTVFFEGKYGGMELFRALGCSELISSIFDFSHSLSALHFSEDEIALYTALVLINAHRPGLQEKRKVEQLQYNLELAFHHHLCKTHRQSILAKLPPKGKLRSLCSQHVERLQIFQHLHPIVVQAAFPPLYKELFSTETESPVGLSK
Put plainly: ThermoFluor® Assay (RORγt thermal shift binding). To be noted: 0.065 mg/mL RORγt, 60 µM 1,8-ANS, pH 7.0; estimated from concentration response curves. The essentials: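 Thermal shift of 0.065 mg/mL RORγt with 60 µM 1,8-ANS in 100 mM Hepes pH 7.0, 10 mM NaCl, 2.5 mM GSH, 0.002% Tween-20, heated at 1 °C/min; fluorescence at 500 nm. KD estimated from concentration-response of ΔTm.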

A further test deals with T2, human RORγt LBD (Homo sapiens, UniProt P51449).
T2 construct: expressed in transfected cells; host or cells: HEK293T
T2 sequence (P51449 258-518): T1 sequence (P51449 258-518)
The test is described as follows: RORγt (LBD) Reporter Assay (GAL4 luciferase, HEK293T cells). The class given is cell-based. Conditions: for IC50: compounds for 24 hours. The procedure, abridged:
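HEK293T cells transiently co-transfected with GAL4 DBD–human RORγt LBD (pBIND, with renilla luciferase control) and GAL4-responsive firefly luciferase reporter, plated in phenol-red free DMEM with 5% lipid-reduced FCS. Compound exposure 24 h; firefly/renilla luminescence ratio plotted against compound concentration.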

In test [2] the test system is IL-17 production by CD4 T cells. The test is described as follows: Human Th17 Assay (IL-17 production by CD4 T cells). The class given is cell-based. Conditions: IL-17 in supernatant after 3 days, Th17 differentiation conditions. The source says: The human Thl7 assay tests the effect of RORyt modulatory compounds on IL-17 production by CD4 T cells under conditions which favor Th17 differentiation.
Total CD4^+ T cells were isolated from the peripheral blood mononuclear cells (PBMC) of healthy donors using a CD4^+ T cell isolation kit II, following the manufacturer's instructions (Miltenyi Biotec). Cells were resuspended in a medium of RPMI-1640 supplemented with 10% fetal bovine serum, penicillin, streptomycin, […], and β-mercaptoethanol and were added to 96-well plates at 1.5x10^5 per 100 µL per well. 50 µL of compound at titrated concentrations in DMSO were added into each well at final DMSO concentration at 0.2%. Cells were incubated for 1 hour, then 50 µL of Th17 cell differentiation medium was added to each well. The final concentrations of antibodies and cytokines (R&D Systems) in differentiation medium were: 3x10^6/mL anti-CD3/CD28 beads (prepared using human T cell activation/expansion kit, Miltenyi Biotec), 10 µg/mL anti-IL4, 10 µg/mL anti-IFNγ, 10 ng/mL IL1β, 10 ng/mL IL23, 50 ng/mL IL6, 3 ng/mL TGFβ and 20 U/mL IL2. Cells were cultured at 37 °C and 5% CO2 for 3 days. Supernatants were collected and the accumulated IL-17 in culture was measured by using MULTI-SPOT® Cytokine Plate following manufacture's instruction (Meso Scale Discovery). The plate was read using Sector Imager 6000, and IL-17 concentration was extrapolated from the standard curve. The IC50s were determined by GraphPad.

The structures appear in SMILES notation.

In the case of `COc1nc2ccc(C(O)c3cnc(C)n3C)cc2c(Cl)c1Cc1ccc(C(F)(F)F)cc1` (single isomer, unassigned) [Example 15b, (4-Chloro-2-methoxy-3-(4-(trifluoromethyl)benzyl)quinolin-6-yl)(1,2-dimethyl-1H-imidazol-5-yl)methanol], the Kd in test [1] was 69 nM. On human RORγt LBD (HEK-293T, 6 µM compound), this compound had an inhibition at 6 µM of 100%. Moreover, the IC50 is roughly 1000 nM against human RORγt LBD and 120 nM in test [2] (Homo sapiens, CD4+ T, 72 h).

With `COc1nc2ccc(C(O)c3cnc(C)n3C)cc2c(Cl)c1Cc1ccc(C(F)(F)F)cc1` (single isomer, unassigned) [Example 15c, (4-Chloro-2-methoxy-3-(4-(trifluoromethyl)benzyl)quinolin-6-yl)(1,2-dimethyl-1H-imidazol-5-yl)methanol], the Kd in test [1] was 40 nM. Moreover, the “RORγt (LBD) Reporter Assay, % inhibition @ 6 µM” value on human RORγt LBD (6 µM compound, 6 µM) is recorded as 101%. In addition, the IC50 on human RORγt LBD came to 80 nM; in test [2] it was 130 nM.
